Reference: ChEMBL document CHEMBL1629667, “Activities of dalbavancin against a worldwide collection of 81,673 gram-positive bacterial isolates” (2009)
Converted amounts (≈) assume the structure as drawn.

Key:
Assay type in all cases: functional
Streptococcus [1] = experiment: Antimicrobial activity against viridans group Streptococcus assessed as percent resistant isolates by broth microdilution method
Streptococcus [2] = experiment: Antimicrobial activity against viridans group Streptococcus by broth microdilution method
Streptococcus [3] = experiment: Antimicrobial activity against Beta-hemolytic Streptococcus assessed as percent susceptible isolate by broth microdilution method
Streptococcus [4] = experiment: Antimicrobial activity against Beta-hemolytic Streptococcus by broth microdilution method
Streptococcus [5] = experiment: Antimicrobial activity against viridans group Streptococcus assessed as percent susceptible isolate by broth microdilution method
Staphylococcus [6] = experiment: Antimicrobial activity against Oxacillin-susceptible coagulase-negative Staphylococcus assessed as percent resistant isolate by broth microdilution method
Staphylococcus [7] = experiment: Antimicrobial activity against Oxacillin-susceptible coagulase-negative Staphylococcus assessed as percent susceptible isolate by broth microdilution method
Staphylococcus aureus [8] = experiment: Antimicrobial activity against Oxacillin-susceptible Staphylococcus aureus assessed as percent susceptible isolate by broth microdilution method
Staphylococcus aureus [9] = experiment: Antimicrobial activity against Oxacillin-susceptible Staphylococcus aureus by broth microdilution method
Staphylococcus [10] = experiment: Antimicrobial activity against Oxacillin-resistant coagulase-negative Staphylococcus assessed as percent resistant isolate by broth microdilution method
Staphylococcus [11] = experiment: Antimicrobial activity against Oxacillin-resistant coagulase-negative Staphylococcus assessed as percent susceptible isolate by broth microdilution method
Staphylococcus aureus [12] = experiment: Antimicrobial activity against Oxacillin-resistant Staphylococcus aureus assessed as percent susceptible isolate by broth microdilution method
Staphylococcus aureus [13] = experiment: Antimicrobial activity against Oxacillin-resistant Staphylococcus aureus by broth microdilution method
Staphylococcus aureus [14] = experiment: Antimicrobial activity against Oxacillin-resistant Staphylococcus aureus assessed as percent resistant isolate by broth microdilution method
Staphylococcus [15] = experiment: Antimicrobial activity against Oxacillin-susceptible coagulase-negative Staphylococcus by broth microdilution method
Staphylococcus aureus [16] = experiment: Antimicrobial activity against Oxacillin-susceptible Staphylococcus aureus assessed as percent resistant isolates by broth microdilution method
Enterococcus faecium [17] = experiment: Antimicrobial activity against Vancomycin-nonsusceptible Enterococcus faecium assessed as percent resistant isolates by broth microdilution method
Staphylococcus [18] = experiment: Antimicrobial activity against Oxacillin-resistant coagulase-negative Staphylococcus by broth microdilution method
Enterococcus faecium [19] = experiment: Antimicrobial activity against Vancomycin-nonsusceptible Enterococcus faecium assessed as percent susceptible isolate by broth microdilution method
Enterococcus faecalis [20] = experiment: Antimicrobial activity against Vancomycin-susceptible Enterococcus faecalis assessed as percent susceptible isolate by broth microdilution method
Enterococcus faecalis [21] = experiment: Antimicrobial activity against Vancomycin-nonsusceptible Enterococcus faecalis assessed as percent susceptible isolate by broth microdilution method
Enterococcus faecalis [22] = experiment: Antimicrobial activity against Vancomycin-susceptible Enterococcus faecalis assessed as percent resistant isolates by broth microdilution method
Enterococcus faecium [23] = experiment: Antimicrobial activity against Vancomycin-susceptible Enterococcus faecium assessed as percent resistant isolates by broth microdilution method
Enterococcus faecium [24] = experiment: Antimicrobial activity against Vancomycin-susceptible Enterococcus faecium assessed as percent susceptible isolate by broth microdilution method
Enterococcus faecalis [25] = experiment: Antimicrobial activity against Vancomycin-susceptible Enterococcus faecalis by broth microdilution method
Enterococcus faecalis [26] = experiment: Antimicrobial activity against Vancomycin-nonsusceptible Enterococcus faecalis assessed as percent resistant isolates by broth microdilution method

Molecule | Activity (Staphylococcus [6]) [%] | Activity (Staphylococcus [7]) [%] | Activity (Staphylococcus aureus [8]) [%] | MIC50 (Staphylococcus aureus [9]) [µg/mL] | MIC90 (Staphylococcus aureus [9]) [µg/mL] | Activity (Staphylococcus [10]) [%] | Activity (Staphylococcus [11]) [%] | Activity (Staphylococcus aureus [12]) [%] | MIC90 (Staphylococcus aureus [13]) [µg/mL] | Activity (Staphylococcus aureus [14]) [%] | MIC50 (Staphylococcus [15]) [µg/mL] | MIC90 (Staphylococcus [15]) [µg/mL] | Activity (Staphylococcus aureus [16]) [%] | other results
CC1(C)S[C@@H]2[C@H](NC(=O)Cc3ccccc3)C(=O)N2[C@H]1C(=O)O [PENICILLIN G] | – | – | – | – | – | – | – | – | – | – | – | – | – | Activity (Streptococcus [1]): 6%; MIC50 (Streptococcus [2]): 0.06 µg/mL (≈ 0.179 µM); MIC90 (Streptococcus [2]): 1 µg/mL (≈ 2.99 µM); Activity (Streptococcus [3]): 99.9%; MIC (Streptococcus [4]): 0.015 µg/mL (≈ 0.0449 µM); MIC50 (Streptococcus [4]): 0.015 µg/mL (≈ 0.0449 µM); MIC90 (Streptococcus [4]): 0.06 µg/mL (≈ 0.179 µM); Activity (Streptococcus [5]): 71.7%
CN(C)[C@@H]1C(O)=C(C(N)=O)C(=O)[C@@]2(O)C(O)=C3C(=O)c4c(O)cccc4[C@@](C)(O)[C@H]3C[C@@H]12 [TETRACYCLINE] | 12.6 | 86.7 | 93.7 | ≤ 4 | ≤ 4 | 15.8 | 83.4 | 81.1 | > 8 | 18.4 | ≤ 4 | > 8 | 5.8 | MIC (Staphylococcus aureus [9]): ≤ 4 µg/mL; MIC (Staphylococcus [15]): ≤ 4 µg/mL
GENTAMICIN | 3.1 | 95 | 97.1 | < 2 | < 2 | 35.3 | 50.7 | 74.1 | > 8 | 24.8 | < 2 | < 2 | 2.6 | Activity (Enterococcus faecium [17]): 35.7%; MIC50 (Staphylococcus [18]): 4 µg/mL; MIC90 (Staphylococcus [18]): > 8 µg/mL; Activity (Enterococcus faecium [19]): 64.3%; MIC50 (Staphylococcus aureus [13]): < 2 µg/mL; Activity (Enterococcus faecalis [20]): 68.5%; Activity (Enterococcus faecalis [21]): 28.4%; Activity (Enterococcus faecalis [22]): 31.5%; Activity (Enterococcus faecium [23]): 38.2%; Activity (Enterococcus faecium [24]): 61.8%; MIC50 (Enterococcus faecalis [25]): < 500 µg/mL; MIC90 (Enterococcus faecalis [25]): > 1000 µg/mL; Activity (Enterococcus faecalis [26]): 71.6%
